Where “and” joins values, the source holds several entries; their conditions need not be identical. Equal values may be shown once. Read-outs that look alike come from different tables or passages of the source.
Key:
[1] = test system: rats; test: Tolerability after intravenous treatment of rats; conditions: 1 mg/kg iv, three rats
[2] = test system: ICR mice; conditions: ip, cited from earlier work; for tolerated dose: four mice per group
[3] = test system: ICR mice; test: Acute toxicity study in mice; conditions: ip, HCl salts, four mice per group, doses 2.5, 5, 10, 15 mg/kg every 24 h
[4] = test system: WNV (strain New York 99); conditions: Huh-7 cells, 48 h postinfection
[5] = Pharmacokinetic characterization in rats; assay type: in vivo, Sprague Dawley rats; conditions: rat, ip, 2.5 mg/kg
[6] = test system: RSV A2 strain; test: Multicycle replication of RSV in A549 cells; assay type: cell-based, respiratory syncytial virus
[7] = test system: SARS-CoV-2; conditions: infected Calu-3 cells; cited from earlier work
[8] = test system: DENV-2 (strain 16681); conditions: Huh-7 cells, 48 h postinfection

## CC(C)(C)[C@H](NC(=O)[C@H](CCCNC(=N)N)NC(=O)Cc1ccc(CNC(=N)N)cc1)C(=O)N[C@@H](CCCNC(=N)N)C(=O)NCc1ccc(C(=N)N)cc1 [Inhibitor 1]
[1]
  tolerability after iv treatment: two of three rats died within 90 min
[2]; at 5 mg/kg
  number of deaths at next higher dose: all mice died and 4 of 4 at 5 mg/kg
[2]
  tolerated dose: 2.5 mg/kg

## CC(C)(C)[C@H](NC(=O)[C@H](CCCNC(=N)N)NC(=O)Cc1ccc(CNC(=N)N)cc1)C(=O)N[C@@H](CCCCN)C(=O)NCc1ccc(C(=N)N)cc1 [Inhibitor 2]
[2]; at 10 mg/kg
  number of deaths at next higher dose: 4 of 4 at 10 mg/kg
[2]
  tolerated dose: 5 mg/kg

## CC(C)(C)[C@H](NC(=O)[C@H](CCONC(=N)N)NC(=O)Cc1ccc(CN)cc1)C(=O)N[C@@H](CCCCN)C(=O)NCc1ccc(C(=N)N)cc1 [Inhibitor 5]
[3]
  tolerated dose: 15 mg/kg

## CC(C)(C)[C@H](NC(=O)[C@H](CCONC(=N)N)NC(=O)Cc1ccc(CNC(=N)N)cc1)C(=O)N[C@@H](CCONC(=N)N)C(=O)NCc1ccc(C(=N)N)cc1 [Inhibitor 8]
[3]
  tolerated dose: 15 mg/kg
[4]
  antiviral potency against WNV (virus titers): significant antiviral potency
[5]
  period with plasma levels >1000 ng/mL (∼1.3 μM): approximately 3 h
[1]
  tolerability after iv treatment: well-accepted in all three rats without any signs of side effects
[6]; MOI 1, 0.1-10 µM inhibitor, 16-72 h post infection
  RSV inhibition compared with reference inhibitor 1 (viral titers): strongest antiviral efficacy
[6]; initial tests, 10 µM
  inhibition of RSV replication at 10 µM: complete inhibition of virus replication
[7]
  reduction of SARS-CoV-2 replication: significant reduction of the SARS-CoV-2 replication
[8]
  antiviral potency against DENV-2 (virus titers): significant antiviral potency

From article PMC7957917 (ACS Medicinal Chemistry Letters, 2021)
